Measured values: ChEMBL document CHEMBL5335794, “Discovery of novel multifunctional ligands targeting GABA transporters, butyrylcholinesterase, β-secretase, and amyloid β aggregation as potential treatment of Alzheimer's disease” (Eur J Med Chem, 2023)

Experiments:
[1] = target: Acetylcholinesterase (Electrophorus electricus) (UniProt O42275); experiment: Inhibition of electric eel AChE using acetylthiocholine iodide as substrate at 10 uM preincubated for 5 mins followed by substrate addition and measured after 5 mins by DTNB reagent based Ellman's method relative to control; conditions: time 10.0 min
[2] = target: Beta-secretase 1 (Homo sapiens, UniProt P56817); conditions: dose 50.0 µM, time 60.0 min
[3] = target: Sodium- and chloride-dependent GABA transporter 1 (Mus musculus, UniProt P31648); experiment: Inhibition of mouse GAT1 transfected in HEK293 cells assessed as reduction in [3H]-GABA uptake preincubated for 25 mins followed by [3H]-GABA addition and measured after 4 mins by liquid scintillation counting analysis; assay type: cell-based; conditions: for IC50: read-out: pIC50 (converted)
[4] = Inhibition of mouse GAT3 transfected in HEK293 cells assessed as reduction in [3H]-GABA uptake preincubated for 25 mins followed by [3H]-GABA addition and measured after 4 mins by liquid scintillation counting analysis; assay type: cell-based; conditions: for IC50: HEK293, read-out: pIC50 (converted); for pIC50: hek293
[5] = target: Sodium- and chloride-dependent GABA transporter 1 (Mus musculus) (UniProt P31648); experiment: Inhibition of NO 711 marker binding to mouse GAT1 assessed as residual activity at 100 uM by LC-ESI-MS/MS based competitive MS binding assay relative to control
[6] = target: Cholinesterase (Equus caballus, UniProt P81908)
Description: Inhibition of equine serum BuChE using butyrylthiocholine iodide as substrate preincubated for 5 mins followed by substrate addition and measured after 5 mins by DTNB reagent based Ellman's method

[7] = target: T1, GABA transporter 4 (Mus musculus, UniProt P31650); experiment: Inhibition of mouse GAT4 transfected in HEK293 cells assessed as reduction in [3H]-GABA uptake preincubated for 25 mins followed by [3H]-GABA addition and measured after 4 mins by liquid scintillation counting analysis; assay type: cell-based; conditions: read-out: pIC50 (converted)
T1 sequence (P31650 whole entry): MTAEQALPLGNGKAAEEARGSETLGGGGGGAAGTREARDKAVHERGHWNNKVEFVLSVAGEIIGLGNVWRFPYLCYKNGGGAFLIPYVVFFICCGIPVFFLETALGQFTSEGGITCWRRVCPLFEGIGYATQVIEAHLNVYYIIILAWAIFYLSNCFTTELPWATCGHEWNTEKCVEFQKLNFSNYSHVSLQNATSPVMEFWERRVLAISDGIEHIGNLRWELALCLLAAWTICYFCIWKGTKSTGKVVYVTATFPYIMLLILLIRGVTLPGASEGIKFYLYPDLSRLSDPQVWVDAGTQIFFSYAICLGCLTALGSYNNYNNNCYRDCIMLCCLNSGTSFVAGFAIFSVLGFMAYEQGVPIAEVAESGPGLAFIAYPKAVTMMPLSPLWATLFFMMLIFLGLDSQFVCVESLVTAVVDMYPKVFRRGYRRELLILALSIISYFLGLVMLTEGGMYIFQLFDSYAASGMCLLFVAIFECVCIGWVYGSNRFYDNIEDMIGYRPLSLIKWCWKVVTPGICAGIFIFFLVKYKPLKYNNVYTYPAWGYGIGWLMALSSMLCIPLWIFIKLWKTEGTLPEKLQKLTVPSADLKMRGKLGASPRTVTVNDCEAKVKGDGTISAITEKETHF

[8] = target: T2, GABA transporter 2 (Mus musculus, UniProt P31651); experiment: Inhibition of mouse GAT2 transfected in HEK293 cells assessed as reduction in [3H]-GABA uptake preincubated for 25 mins followed by [3H]-GABA addition and measured after 10 mins by liquid scintillation counting analysis; assay type: cell-based; conditions: read-out: pIC50 (converted)
T2 sequence (P31651 whole entry): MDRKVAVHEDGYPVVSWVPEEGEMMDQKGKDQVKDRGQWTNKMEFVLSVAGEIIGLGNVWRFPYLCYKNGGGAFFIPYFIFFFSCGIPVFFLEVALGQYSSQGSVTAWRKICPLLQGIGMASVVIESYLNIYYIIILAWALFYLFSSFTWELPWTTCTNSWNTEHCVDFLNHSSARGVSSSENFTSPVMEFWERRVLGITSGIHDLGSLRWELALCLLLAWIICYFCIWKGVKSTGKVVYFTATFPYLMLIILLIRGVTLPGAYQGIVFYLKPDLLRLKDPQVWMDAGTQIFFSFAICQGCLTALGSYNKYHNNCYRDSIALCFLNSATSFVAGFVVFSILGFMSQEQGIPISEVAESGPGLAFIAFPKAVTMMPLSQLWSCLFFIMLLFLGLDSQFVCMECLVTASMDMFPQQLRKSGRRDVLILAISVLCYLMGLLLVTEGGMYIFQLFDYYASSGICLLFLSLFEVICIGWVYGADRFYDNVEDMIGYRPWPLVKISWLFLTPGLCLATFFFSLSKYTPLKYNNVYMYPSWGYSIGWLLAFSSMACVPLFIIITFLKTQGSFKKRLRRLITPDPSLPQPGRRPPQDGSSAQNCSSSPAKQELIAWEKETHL

[9] = target: Cholinesterase (Equus caballus) (UniProt P81908); experiment: Inhibition of equine serum BuChE using butyrylthiocholine iodide as substrate at 10 uM preincubated for 5 mins followed by substrate addition and measured after 5 mins by DTNB reagent based Ellman's method relative to control; conditions: time 10.0 min
Chain of Cholinesterase (Equus caballus) (P81908 whole entry): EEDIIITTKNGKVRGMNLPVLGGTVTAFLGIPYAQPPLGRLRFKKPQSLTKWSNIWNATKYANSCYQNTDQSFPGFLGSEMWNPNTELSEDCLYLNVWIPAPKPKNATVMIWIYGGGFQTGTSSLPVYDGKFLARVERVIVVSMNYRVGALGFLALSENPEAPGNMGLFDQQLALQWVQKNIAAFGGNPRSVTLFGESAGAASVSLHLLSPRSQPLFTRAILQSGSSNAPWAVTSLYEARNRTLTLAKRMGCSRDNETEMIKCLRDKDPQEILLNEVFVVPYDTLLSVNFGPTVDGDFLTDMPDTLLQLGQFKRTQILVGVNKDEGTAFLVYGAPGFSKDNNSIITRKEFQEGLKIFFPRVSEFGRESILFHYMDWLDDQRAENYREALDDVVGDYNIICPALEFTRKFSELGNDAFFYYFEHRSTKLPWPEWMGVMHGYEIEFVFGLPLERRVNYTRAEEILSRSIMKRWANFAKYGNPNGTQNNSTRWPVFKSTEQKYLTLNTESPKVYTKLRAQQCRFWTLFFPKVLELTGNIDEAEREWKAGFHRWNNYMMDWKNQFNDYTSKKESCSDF

Chain of Acetylcholinesterase (Electrophorus electricus) (O42275 24-633 limits assumed): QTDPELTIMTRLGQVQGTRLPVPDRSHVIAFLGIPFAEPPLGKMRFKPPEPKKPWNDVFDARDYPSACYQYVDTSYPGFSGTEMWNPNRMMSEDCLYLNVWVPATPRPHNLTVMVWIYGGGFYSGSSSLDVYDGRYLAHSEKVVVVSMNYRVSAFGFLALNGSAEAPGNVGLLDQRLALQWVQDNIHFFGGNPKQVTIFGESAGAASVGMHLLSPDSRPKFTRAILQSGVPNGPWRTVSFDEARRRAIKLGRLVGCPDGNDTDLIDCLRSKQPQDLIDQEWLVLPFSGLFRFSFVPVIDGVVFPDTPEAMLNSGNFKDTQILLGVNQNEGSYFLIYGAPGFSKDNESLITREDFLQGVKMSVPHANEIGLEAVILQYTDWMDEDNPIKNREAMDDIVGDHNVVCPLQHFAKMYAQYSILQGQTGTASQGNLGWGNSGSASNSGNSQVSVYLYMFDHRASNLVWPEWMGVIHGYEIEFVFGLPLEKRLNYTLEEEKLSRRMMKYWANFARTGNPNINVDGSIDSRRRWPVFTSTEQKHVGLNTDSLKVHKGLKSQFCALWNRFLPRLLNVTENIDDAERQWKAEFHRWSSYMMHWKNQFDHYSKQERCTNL
Chain of Beta-secretase 1 (P56817 whole entry): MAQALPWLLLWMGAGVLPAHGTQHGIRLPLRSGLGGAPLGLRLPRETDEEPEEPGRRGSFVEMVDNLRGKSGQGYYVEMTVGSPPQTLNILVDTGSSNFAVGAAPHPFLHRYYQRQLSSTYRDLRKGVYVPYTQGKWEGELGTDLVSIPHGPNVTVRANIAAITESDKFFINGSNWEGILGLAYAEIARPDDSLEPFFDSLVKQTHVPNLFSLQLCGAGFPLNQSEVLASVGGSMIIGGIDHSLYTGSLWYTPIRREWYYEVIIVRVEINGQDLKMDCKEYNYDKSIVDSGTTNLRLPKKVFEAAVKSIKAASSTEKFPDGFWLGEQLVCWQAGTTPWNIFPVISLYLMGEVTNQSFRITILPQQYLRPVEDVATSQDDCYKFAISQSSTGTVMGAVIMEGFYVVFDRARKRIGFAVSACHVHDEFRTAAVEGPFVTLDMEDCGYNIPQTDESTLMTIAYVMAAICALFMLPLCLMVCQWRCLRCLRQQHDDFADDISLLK
Chain of Cholinesterase (P81908 whole entry): as the sequence (P81908 whole entry) above

| Structure (SMILES) | inhibition [1] | inhibition [2] | inhibition [9] | other results |
| --- | --- | --- | --- | --- |
| CC(=O)NCCC(C(=O)NCc1ccc(F)cc1)N(C)CCOCCN1c2ccccc2Sc2ccccc21 (stereo unspecified) | < 10% | 45% | – | IC50 [3]: 22.9 µM; IC50 [4]: 10.7 µM; Activity [5]: 85%; IC50 [6]: 8.25 µM; IC50 [7]: 18.2 µM; IC50 [8]: 24.5 µM |
| CN(CCC=C1c2ccccc2C=Cc2ccccc21)C(CO)C(=O)NCc1ccc(Cl)cc1 (stereo unspecified) | 11% | 77% | 40% | – |
| CC(O)CC(C(=O)NCc1ccccc1Cl)N(C)CC/C=C/c1ccccc1-c1ccccc1 (racemic; form 1) [listing 1 of 2 here] | – | – | – | IC50 [3]: 33.9 µM; IC50 [4]: 13.8 µM; IC50 [7]: 38 µM; IC50 [8]: 15.5 µM |
| CN(CCC=C1c2ccccc2CCc2ccccc21)C(CCO)C(=O)NCc1ccccc1Cl (stereo unspecified) | 11% | 44% | 24% | – |
| CC(O)CC(C(=O)NCc1ccc(F)cc1)N(C)CC/C=C/c1ccccc1-c1ccccc1 (racemic; form 2) [listing 1 of 2 here] | < 10% | 36% | 62% | Activity [5]: 87% |
| CC(O)CC(C(=O)NCc1ccccc1Cl)N(C)CC/C=C/c1ccccc1-c1ccccc1 (racemic; form 2) [listing 1 of 2 here] | – | – | – | IC50 [3]: 28.8 µM; pIC50 [4]: 4.82; IC50 [6]: 3.67 µM; IC50 [7]: 15.1 µM; IC50 [8]: 13.5 µM |
| CC(O)CC(C(=O)NCc1ccccc1)N(C)CC/C=C/c1ccccc1-c1ccccc1 (racemic; form 1) [listing 1 of 2 here] | – | – | – | IC50 [3]: 37.2 µM; IC50 [4]: 25.1 µM; IC50 [7]: 50.1 µM; IC50 [8]: 18.2 µM |
| CC(O)CC(C(=O)NCc1ccccc1)N(C)CC/C=C/c1ccccc1-c1ccccc1 (racemic; form 1) [listing 2 of 2 here] | < 10% | 36% | 58% | Activity [5]: 75% |
| CC(=O)NCCC(C(=O)NCc1ccc(Cl)cc1)N(C)CCC=C1c2ccccc2CCc2ccccc21 (stereo unspecified) | < 10% | 49% | 24% | – |
| CC(=O)NCCC(C(=O)NCc1ccc(C)cc1)N(C)CCC=C1c2ccccc2CCc2ccccc21 (stereo unspecified) | < 10% | 36% | 43% | – |
| CC(O)CC(C(=O)NCc1ccc(F)cc1)N(C)CC/C=C/c1ccccc1-c1ccccc1 (racemic; form 1) [listing 1 of 2 here] | – | – | – | IC50 [3]: 24.5 µM; IC50 [4]: 8.91 µM; IC50 [7]: 19.1 µM; IC50 [8]: 9.77 µM |
| CN(CCC=C1c2ccccc2C=Cc2ccccc21)C(CCO)C(=O)NCc1ccccc1 (stereo unspecified) | < 10% | 34% | 56% | – |
| CN(CCC=C1c2ccccc2C=Cc2ccccc21)C(CCO)C(=O)NCc1ccc(F)cc1 (stereo unspecified) | < 10% | 39% | 39% | – |
| CN(CCC=C1c2ccccc2C=Cc2ccccc21)C(CCO)C(=O)NCc1ccc(Cl)cc1 (stereo unspecified) | < 10% | 48% | 21% | – |
| CN(CCC=C1c2ccccc2C=Cc2ccccc21)C(CO)C(=O)NCc1ccccc1 (stereo unspecified) | < 10% | 29% | – | IC50 [6]: 4.35 µM |
| CC(=O)NCCC(C(=O)NCc1ccccc1)N(C)CCC=C1c2ccccc2CCc2ccccc21 (stereo unspecified) | < 10% | 34% | 60% | – |
| Cc1ccc(CNC(=O)C(CCO)N(C)CCC=C2c3ccccc3-c3ccccc32)cc1 (stereo unspecified) | < 10% | 55% | 52% | – |
| CC(=O)NCCC(C(=O)NCc1ccc(F)cc1)N(C)CCC=C1c2ccccc2CCc2ccccc21 (stereo unspecified) | < 10% | 54% | 47% | – |
| CN(CCC=C1c2ccccc2C=Cc2ccccc21)C(CCO)C(=O)NCc1ccccc1Cl (stereo unspecified) | < 10% | 48% | 32% | – |
| CC(=O)NCCC(C(=O)NCc1ccccc1Cl)N(C)CCC=C1c2ccccc2CCc2ccccc21 (stereo unspecified) | < 10% | 44% | 41% | – |

| Structure (SMILES) | inhibition [1] | inhibition [2] | inhibition [9] | other results |
| --- | --- | --- | --- | --- |
| CN(CCC=C1c2ccccc2CCc2ccccc21)C(CCO)C(=O)NCc1ccccc1 (stereo unspecified) | < 10% | 19% | 38% | – |
| CN(CCC=C1c2ccccc2CCc2ccccc21)C(CCO)C(=O)NCc1ccc(Cl)cc1 (stereo unspecified) | < 10% | 43% | 19% | – |
| CC(O)CC(C(=O)NCc1ccc(F)cc1)N(C)CC/C=C/c1ccccc1-c1ccccc1 (racemic; form 1) [listing 2 of 2 here] | < 10% | 39% | 59% | Activity [5]: 86% |
| CC(O)CC(C(=O)NCc1ccccc1)N(C)CC/C=C/c1ccccc1-c1ccccc1 (racemic; form 2) | < 10% | 4% | – | – |
| CN(CCC=C1c2ccccc2C=Cc2ccccc21)C(CO)C(=O)NCc1ccc(F)cc1 (stereo unspecified) | < 10% | 30% | – | IC50 [6]: 3.24 µM |
| CC(O)CC(C(=O)NCc1ccc(F)cc1)N(C)CC/C=C/c1ccccc1-c1ccccc1 (racemic; form 2) [listing 2 of 2 here] | – | – | – | pIC50 ([3]; hek293): 4.61; pIC50 [4]: 4.87; IC50 [7]: 14.5 µM; IC50 [8]: 11.7 µM |
| CN(CCC=C1c2ccccc2-c2ccccc21)C(CCO)C(=O)NCc1ccccc1Cl (stereo unspecified) | < 10% | 59% | – | IC50 [6]: 1.63 µM |
| CN(CCC=C1c2ccccc2CCc2ccccc21)C(CO)C(=O)NCc1ccc(Cl)cc1 (stereo unspecified) | < 10% | 34% | 36% | – |
| Cc1ccc(CNC(=O)C(CCO)N(C)CCC=C2c3ccccc3C=Cc3ccccc32)cc1 (stereo unspecified) | < 10% | 47% | 35% | – |
| Cc1ccc(CNC(=O)C(CO)N(C)CCC=C2c3ccccc3CCc3ccccc32)cc1 (stereo unspecified) | < 10% | 59% | 45% | – |
| CC(O)CC(C(=O)NCc1ccccc1Cl)N(C)CC/C=C/c1ccccc1-c1ccccc1 (racemic; form 2) [listing 2 of 2 here] | < 10% | 57% | – | Activity [5]: 76% |
| CN(CCC=C1c2ccccc2CCc2ccccc21)C(CO)C(=O)NCc1ccccc1Cl (stereo unspecified) | < 10% | 72% | 52% | – |
| Cc1ccc(CNC(=O)C(CCO)N(C)CCC=C2c3ccccc3CCc3ccccc32)cc1 (stereo unspecified) | < 10% | 41% | 36% | – |
| CN(CCC=C1c2ccccc2CCc2ccccc21)C(CO)C(=O)NCc1ccccc1 (stereo unspecified) | < 10% | 33% | 38% | – |
| Cc1ccc(CNC(=O)C(CO)N(C)CCC=C2c3ccccc3C=Cc3ccccc32)cc1 (stereo unspecified) | 30% | 54% | – | IC50 [6]: 6.22 µM |
| CN(CCC=C1c2ccccc2CCc2ccccc21)C(CCO)C(=O)NCc1ccc(F)cc1 (stereo unspecified) | < 10% | 34% | 39% | – |
| CN(CCC=C1c2ccccc2C=Cc2ccccc21)C(CO)C(=O)NCc1ccccc1Cl (stereo unspecified) | 12% | 52% | – | IC50 [6]: 8.23 µM |
| CN(CCC=C1c2ccccc2CCc2ccccc21)C(CO)C(=O)NCc1ccc(F)cc1 (stereo unspecified) | < 10% | 48% | 32% | – |
| CC(O)CC(C(=O)NCc1ccccc1Cl)N(C)CC/C=C/c1ccccc1-c1ccccc1 (racemic; form 1) [listing 2 of 2 here] | < 10% | 43% | 64% | Activity [5]: 75% |
